Four molecules from ChEMBL document CHEMBL1201862, “PubChem BioAssay data set” (2004) can be followed below.

Assay [1] is described as follows: Fluorescence polarization-based biochemical high throughput dose response assay for activators of the Protein Kinase A-R1A (PKA-R1A) complex. [Related pubchem assays (depositor defined):AID504704, AID504707, AID504799, AID504800]. (In fluorescence polarisation assays a small probe gives low polarisation when free and higher when bound to something large.)
Assay [2] in a line: Fluorescence polarization-based biochemical high throughput dose response assay for activators of the Protein Kinase A-R2B (PKA-R2B) complex. [Related pubchem assays (depositor defined):AID504700, AID504704, AID504796, AID504797].
Assay [3] deals with Voltage-gated inwardly rectifying potassium channel KCNH2 (Homo sapiens, UniProt Q12809). Conditions: Potency.
Assay [4] in a line: growth suppression of PTEN-null colon cells, dose response, cell-based, HCT116 PTEN knockout (AID 1047).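 Note: HCT116 colon tumor cells with PTEN knocked out; cells exposed to compound for 60 hours before readout; potency for loss of cell viability measured by luminescence.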 The assay is classed as functional.
Assay [5] in a line: growth suppression of beta-catenin-knockout colon cells, dose response, cell-based, HCT116, human colon tumor (AID 1045).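 Note: HCT116 colon tumor cells with beta catenin knocked out; cells exposed to compound for 60 hours.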 Format: functional.
The target in assay [6] is T1, Ubiquitin-conjugating enzyme E2 N (Homo sapiens, UniProt P61088).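 Note: Dose-response confirmation in a TR-FRET assay detecting UBC13-driven polyubiquitin chain formation, inhibition measured.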
T1 sequence (P61088 whole entry): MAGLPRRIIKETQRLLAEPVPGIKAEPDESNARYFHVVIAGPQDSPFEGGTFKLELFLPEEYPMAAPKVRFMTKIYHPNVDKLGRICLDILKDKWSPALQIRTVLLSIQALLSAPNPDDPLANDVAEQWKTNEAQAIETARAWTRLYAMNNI
The assay is classed as functional.

Assay [7] addresses T2, Microphthalmia-associated transcription factor (Homo sapiens, UniProt O75030).
T2 sequence (O75030 whole entry): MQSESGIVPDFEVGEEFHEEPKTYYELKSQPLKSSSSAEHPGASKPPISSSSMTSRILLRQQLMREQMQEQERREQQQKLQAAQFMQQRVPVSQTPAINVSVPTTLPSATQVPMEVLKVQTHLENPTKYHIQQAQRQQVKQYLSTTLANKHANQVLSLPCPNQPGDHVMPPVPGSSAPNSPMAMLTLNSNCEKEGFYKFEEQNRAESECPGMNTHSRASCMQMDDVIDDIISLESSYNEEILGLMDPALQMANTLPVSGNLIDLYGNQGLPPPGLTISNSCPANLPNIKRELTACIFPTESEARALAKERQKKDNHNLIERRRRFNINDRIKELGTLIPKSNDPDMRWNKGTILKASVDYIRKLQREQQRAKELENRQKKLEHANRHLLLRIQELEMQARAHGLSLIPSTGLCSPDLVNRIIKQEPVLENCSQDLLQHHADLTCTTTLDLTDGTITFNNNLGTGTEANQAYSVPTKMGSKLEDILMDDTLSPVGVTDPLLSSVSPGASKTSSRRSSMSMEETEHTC
Kind of assay: TRPM1 promoter luciferase signal decrease, dose response, MITF inhibitor project, cell-based, SK-MEL-5, cherry-picked, set 3 (AID 493073).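 Note: SK-MEL-5 melanoma cells with luciferase driven by the MITF target TRPM1 promoter.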 The assay is classed as functional.

Another assay has as its system A-375. The experiment in a line: MITF: Counter assay: A375 proliferation Measured in Cell-Based System Using Plate Reader - 2084-03_Inhibitor_Dose_DryPowder_Activity. [Related pubchem assays (depositor defined):AID488944]. Format: functional. Conditions: Homo sapiens.
The next assay has as its target Beta-galactosidase (Escherichia coli, UniProt Q8VNN2). Kind of assay: beta-galactosidase enzyme inhibitors and activators, dose response, artefact control for CCR6 antagonist project, biochemical, E. coli enzyme, set 3 (AID 504712). Format: functional.
In assay [8] the target is T3, Polyadenylate-binding protein 1 (Homo sapiens, UniProt P11940). The experiment in a line: PABP1 MLLE–PAM2 interaction inhibitors, dose response, miRNA deadenylation inhibitor project, biochemical, fluorescence polarization, Cy5-PAM2 peptide, secondary (AID 602260). The assay is classed as functional. Conditions: read-out: IC50_Mean.
Assay [9] addresses T3, Polyadenylate-binding protein 1. Kind of assay: PABP1 MLLE–PAM2 binding inhibitor potency, dose response, biochemical, fluorescence polarization, FITC-PAM2 peptide (AID 602259). The assay is classed as functional. Conditions: read-out: IC50_Mean.
The test system of assay [10] is HEK293. Kind of assay: cells. Conditions: Homo sapiens.
The subject of assay [11] is HEK293. The experiment in a line: cells. Conditions: Homo sapiens. The source holds these as a separate data set.

Active and inactive are the calls of the source.

What is called EC50 is the midpoint of the concentration-response curve. What is called AC50 is the midpoint of the concentration-response curve, whichever way the signal moves.

T3 sequence (P11940 whole entry): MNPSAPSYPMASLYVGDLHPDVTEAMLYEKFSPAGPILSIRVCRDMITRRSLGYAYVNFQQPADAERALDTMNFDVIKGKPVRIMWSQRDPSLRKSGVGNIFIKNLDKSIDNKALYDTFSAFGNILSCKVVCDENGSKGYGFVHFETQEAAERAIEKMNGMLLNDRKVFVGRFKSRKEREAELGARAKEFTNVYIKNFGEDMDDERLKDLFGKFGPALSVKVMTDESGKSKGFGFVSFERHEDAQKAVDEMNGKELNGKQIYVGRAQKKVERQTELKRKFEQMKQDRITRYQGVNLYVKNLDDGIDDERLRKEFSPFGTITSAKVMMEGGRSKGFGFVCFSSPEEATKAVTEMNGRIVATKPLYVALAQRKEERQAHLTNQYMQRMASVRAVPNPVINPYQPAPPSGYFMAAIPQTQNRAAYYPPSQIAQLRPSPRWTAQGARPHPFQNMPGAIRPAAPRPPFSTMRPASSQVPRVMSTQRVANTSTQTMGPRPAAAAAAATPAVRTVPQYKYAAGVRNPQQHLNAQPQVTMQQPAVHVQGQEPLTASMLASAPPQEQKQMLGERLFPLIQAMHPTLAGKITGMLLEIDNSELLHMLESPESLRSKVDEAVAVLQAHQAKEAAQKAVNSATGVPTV
Sequence of Voltage-gated inwardly rectifying potassium channel KCNH2 (Q12809 whole entry): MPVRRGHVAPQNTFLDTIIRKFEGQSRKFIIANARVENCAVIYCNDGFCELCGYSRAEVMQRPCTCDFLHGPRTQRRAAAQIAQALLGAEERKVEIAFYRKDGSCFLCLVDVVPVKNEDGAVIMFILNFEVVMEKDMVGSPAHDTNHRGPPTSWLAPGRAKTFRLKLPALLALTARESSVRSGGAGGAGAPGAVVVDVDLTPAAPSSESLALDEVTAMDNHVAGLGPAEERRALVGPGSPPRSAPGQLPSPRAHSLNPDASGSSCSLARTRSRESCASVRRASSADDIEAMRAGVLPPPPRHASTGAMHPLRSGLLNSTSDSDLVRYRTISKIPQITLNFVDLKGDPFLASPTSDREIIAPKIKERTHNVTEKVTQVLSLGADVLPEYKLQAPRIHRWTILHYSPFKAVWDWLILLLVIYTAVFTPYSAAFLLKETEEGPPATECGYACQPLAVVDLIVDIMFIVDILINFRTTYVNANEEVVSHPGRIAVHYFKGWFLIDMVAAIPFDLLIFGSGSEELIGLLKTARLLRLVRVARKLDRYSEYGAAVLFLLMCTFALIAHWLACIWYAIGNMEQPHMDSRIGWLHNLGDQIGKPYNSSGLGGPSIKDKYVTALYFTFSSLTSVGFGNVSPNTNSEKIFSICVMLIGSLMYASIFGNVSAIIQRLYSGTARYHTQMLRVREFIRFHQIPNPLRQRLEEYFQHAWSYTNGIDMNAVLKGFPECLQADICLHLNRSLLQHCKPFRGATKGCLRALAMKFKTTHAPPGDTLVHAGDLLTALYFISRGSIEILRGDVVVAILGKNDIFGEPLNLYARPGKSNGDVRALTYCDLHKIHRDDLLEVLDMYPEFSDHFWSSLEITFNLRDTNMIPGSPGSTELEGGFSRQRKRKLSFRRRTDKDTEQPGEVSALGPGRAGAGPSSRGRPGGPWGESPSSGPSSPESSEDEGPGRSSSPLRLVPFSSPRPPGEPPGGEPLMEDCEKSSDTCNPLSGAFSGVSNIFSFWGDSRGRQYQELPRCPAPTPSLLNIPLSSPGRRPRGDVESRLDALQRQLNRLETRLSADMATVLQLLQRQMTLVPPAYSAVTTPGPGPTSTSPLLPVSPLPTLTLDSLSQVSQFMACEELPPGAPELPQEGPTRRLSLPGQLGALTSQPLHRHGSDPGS
Sequence of Beta-galactosidase (Q8VNN2 whole entry): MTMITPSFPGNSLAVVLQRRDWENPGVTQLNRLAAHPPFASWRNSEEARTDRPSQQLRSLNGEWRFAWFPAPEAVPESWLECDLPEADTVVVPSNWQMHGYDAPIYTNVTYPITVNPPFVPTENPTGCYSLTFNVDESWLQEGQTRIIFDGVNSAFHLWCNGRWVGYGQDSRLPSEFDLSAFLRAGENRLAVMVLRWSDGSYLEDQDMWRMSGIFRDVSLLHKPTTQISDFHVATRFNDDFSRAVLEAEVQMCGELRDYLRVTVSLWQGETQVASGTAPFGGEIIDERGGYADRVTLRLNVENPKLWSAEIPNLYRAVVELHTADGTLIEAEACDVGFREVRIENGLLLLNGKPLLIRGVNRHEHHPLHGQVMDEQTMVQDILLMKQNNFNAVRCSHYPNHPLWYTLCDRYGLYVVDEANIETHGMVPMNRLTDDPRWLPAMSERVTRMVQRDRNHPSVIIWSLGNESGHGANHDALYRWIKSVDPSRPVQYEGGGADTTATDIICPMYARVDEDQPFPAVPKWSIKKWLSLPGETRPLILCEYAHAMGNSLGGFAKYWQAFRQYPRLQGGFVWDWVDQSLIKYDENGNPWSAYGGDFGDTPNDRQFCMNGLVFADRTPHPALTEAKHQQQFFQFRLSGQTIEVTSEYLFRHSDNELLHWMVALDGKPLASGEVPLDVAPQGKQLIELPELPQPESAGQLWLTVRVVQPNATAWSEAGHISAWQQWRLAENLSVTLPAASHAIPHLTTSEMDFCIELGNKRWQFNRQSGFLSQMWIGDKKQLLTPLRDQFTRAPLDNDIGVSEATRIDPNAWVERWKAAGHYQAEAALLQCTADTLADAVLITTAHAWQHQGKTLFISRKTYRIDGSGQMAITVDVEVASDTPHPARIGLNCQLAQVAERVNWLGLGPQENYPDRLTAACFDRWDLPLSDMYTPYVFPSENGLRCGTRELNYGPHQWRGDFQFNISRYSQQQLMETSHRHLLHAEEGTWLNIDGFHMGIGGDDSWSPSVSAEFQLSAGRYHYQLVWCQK

`CCCC(=O)Nc1ncnc2c1ncn2[C@@H]1O[C@@H]2COP(=O)(O)O[C@H]2[C@H]1OC(=O)CCC`: the EC50 in [1] is 12.3 µM (inactive); in assay [2], 11.7 µM (inactive).
Regarding `C/C=C(/C)C(=O)O[C@H]1C(C)=C2[C@H]([C@@H]1OC(=O)CCCCCCC)[C@@](C)(OC(C)=O)C[C@@H](OC(=O)CCC)[C@@]1(O)[C@H]2OC(=O)[C@@]1(C)O`, the AC50 in [3] was 22.4 µM (inconclusive).
As to `COc1ccc(-c2nn(-c3ccccc3)cc2/C=N/N=C(N)N)cc1OC`, the figures for the EC50 in assay [4] and in assay [5] were 4.55 µM (active) and 4.78 µM (active), respectively. Moreover, in [6], the IC50 is > 20 µM (inactive). Moreover, the AC50 in assay [7] is 14.6 µM (active); in the assay on A-375, 17.4 µM (active).
With `CN(C)CCCN1C(=O)c2cccc3c([N+](=O)[O-])ccc(c23)C1=O`, the results for the IC50 (at Beta-galactosidase; in [8]; in assay [9]) were > 66.6 µM (inactive), > 66 µM (inactive) and 60.1 µM (inactive), respectively. The EC50 in the assay on HEK293 [10] and with HEK293 [11] was > 59.6 µM (inactive) each time.
